Test results published in US12365696B2, “Small-molecule focal adhesion kinase (FAK) inhibitors” (DANA-FARBER CANCER INSTITUTE, INC., priority 2019, dated 2025).

What was measured:
[1] = test system: MDA-MB-231 cells; test: 2D-adherent monolayer cell viability (Cell Titer-Glo), 120 hrs; assay type: cell-based; conditions: Homo sapiens
Method: (§1) For 2D-adherent monolayer experiments, MDA-MB-231 cells were plated in 384-well format and allowed to adhere overnight. Cells were treated with indicated molecules from compound stock plates using a JANUS® Workstation pin tool for 120 hrs. To measure cell viability, Cell Titer-Glo® was added to wells for 15 minutes at room temperature and luminescence was measured on an EnVision™ 2104 Multilabel Plate Reader.
Inventive compound treatment (0.00063-20 μM) led to antiproliferative effects in MDA-MB-231 cells cultured as 2D-adherent monolayers or as ultra-low adherent 3D-spheroid suspensions (Table 5).

[2] = target: PTK2 (FAK) (Homo sapiens (Human), UniProt Q05397); test: Z′-LYTE kinase assay (SelectScreen Biochemical Kinase Profiling), enzymatic IC50; conditions: for IC50: enzymatic, Z′-LYTE, read-out: FAK IC50
Method: Enzymatic IC50 data was obtained through ThermoFisher Scientific SelectScreen™ Biochemical Kinase Profiling Service, using a Z′-LYTE™ kinase-specific assay, as described below.
The test compounds were screened in 1% dimethyl sulfoxide (DMSO) (final) in the well. For 10 point titrations, 3-fold serial dilutions were conducted from the starting concentration.
All peptide/kinase mixtures were diluted to a 2× working concentration in the appropriate kinase buffer (see section kinase specific assay conditions for a complete description).
All ATP solutions were diluted to a 4× working concentration in kinase buffer (50 mM 4-(2-hydroxyethyl)-1-piperazineethanesulfonic acid (HEPES) pH 7.5, 0.01% BRIJ-35, 10 mM MgCl2, 1 mM ethylene glycol-bis(β-aminoethyl ether)-N,N,N′,N′-tetraacetic acid (EGTA)). ATP Km apparent was previously determined using a Z′-LYTE assay.
The development reagent was diluted in development buffer (see section kinase-specific assay conditions—direct and cascade for a complete description).
Using a bar-coded Corning, low volume NBS, black 384-well plate (Corning Cat. #4514), 100 nL of 100× test compound in 100% DMSO was added. […] The plate was then shaken for 30 seconds and held at room temperature for a 60 minute kinase reaction incubation period. At which point 5 μL of development reagent solution was added and the plate was shaken for 30 seconds. The plate was held again at room temperature for a 60 minute development reaction incubation period and then read on a fluorescence plate reader and analyzed.
The 2×PTK2 (FAK)/Tyr 07 mixture was prepared in 50 mM HEPES pH 7.5, 0.01% BRIJ-35, 10 mM MgCl2, 1 mM EGTA. […] After the 1 hour kinase reaction incubation period, 5 μL of a 1:16 dilution of development reagent B was added.
SelectScreen Kinase Profiling Service uses XLfit from ID Business Solutions (IDBS). The dose response curve was curve fit to model number 205 (sigmoidal dose-response model).

[3] = test system: MDA-MB-231 cells; test: ultra-low adherent 3D-spheroid suspension cell viability (3D Cell Titer-Glo), 120 hours; assay type: cell-based; conditions: Homo sapiens
Method: as §1, with “ultra-low adherent 3D-spheroid suspensions,” for “2D-adherent monolayer experiments,”, “format in media containing 10% Matrigel®” for “format”, “form spheroids” for “adhere”, “hours.” for “hrs.”, “viability, 3D” for “viability,”

PTK2 (FAK), sequence (Q05397 whole entry): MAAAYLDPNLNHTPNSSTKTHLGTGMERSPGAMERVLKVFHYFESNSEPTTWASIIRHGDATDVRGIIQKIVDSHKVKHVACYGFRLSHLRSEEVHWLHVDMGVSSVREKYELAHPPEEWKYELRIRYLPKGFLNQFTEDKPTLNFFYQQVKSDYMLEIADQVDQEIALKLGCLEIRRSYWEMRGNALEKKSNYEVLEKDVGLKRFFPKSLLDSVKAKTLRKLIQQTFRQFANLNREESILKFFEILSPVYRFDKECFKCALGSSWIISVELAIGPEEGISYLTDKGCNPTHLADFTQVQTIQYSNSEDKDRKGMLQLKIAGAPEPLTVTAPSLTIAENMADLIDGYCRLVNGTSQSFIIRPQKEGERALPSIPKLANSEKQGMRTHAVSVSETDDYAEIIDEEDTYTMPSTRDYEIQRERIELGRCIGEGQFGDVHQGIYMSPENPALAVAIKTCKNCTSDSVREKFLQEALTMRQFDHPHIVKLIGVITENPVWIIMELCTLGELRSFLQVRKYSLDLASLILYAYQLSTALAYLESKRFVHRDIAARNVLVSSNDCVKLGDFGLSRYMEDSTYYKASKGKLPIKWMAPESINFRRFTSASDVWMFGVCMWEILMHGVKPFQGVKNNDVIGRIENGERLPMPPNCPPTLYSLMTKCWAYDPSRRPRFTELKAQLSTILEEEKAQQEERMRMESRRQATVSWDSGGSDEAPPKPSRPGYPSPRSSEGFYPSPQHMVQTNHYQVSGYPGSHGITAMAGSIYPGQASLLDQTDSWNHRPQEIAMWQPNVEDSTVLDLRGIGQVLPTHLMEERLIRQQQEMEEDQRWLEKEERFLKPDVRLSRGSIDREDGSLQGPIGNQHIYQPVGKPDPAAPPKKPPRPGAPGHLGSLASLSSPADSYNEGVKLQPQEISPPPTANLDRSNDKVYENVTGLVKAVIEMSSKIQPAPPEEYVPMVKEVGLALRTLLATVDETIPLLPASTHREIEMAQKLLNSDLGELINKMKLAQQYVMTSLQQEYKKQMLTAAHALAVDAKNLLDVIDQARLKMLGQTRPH

Row | Compound | IC50 [1] [nM] | IC50 [2] [nM] | IC50 [3] [nM] | lower potency relative to 5 ([2]; FAK IC50) [fold]
1 | COc1cc(N2CCN(C)CC2)ccc1Nc1ncc2c(n1)N(C)c1sc(C)nc1C(=O)N2C [Compound 14, 6-((2-methoxy-4-(4-methylpiperazin-1-yl)phenyl)amino)-2,4,9-trimethyl-4,9-dihydro-10H-pyrimido[5,4-b]thiazolo[5,4-e][1,4]diazepin-10-one] | > 10000 | 30.3 | 2300 | –
2 | COc1cc(C2CCN(C)CC2)ccc1Nc1ncc2c(n1)N(C)c1sc(C)nc1C(=O)N2C [Compound 19, 6-((2-methoxy-4-(1-methylpiperidin-4-yl)phenyl)amino)-2,4,9-trimethyl-4,9-dihydro-10H-pyrimido[5,4-b]thiazolo[5,4-e][1,4]diazepin-10-one] | 8900 | 51.9 | 3700 | –
3 | COc1cc(N2CCN(C)CC2)c(C)cc1Nc1ncc2c(n1)N(C)c1sc(C)nc1C(=O)N2C [Compound 18, 6-((2-methoxy-5-methyl-4-(4-methylpiperazin-1-yl)phenyl)amino)-2,4,9-trimethyl-4,9-dihydro-10H-pyrimido[5,4-b]thiazolo[5,4-e][1,4]diazepin-10-one] | > 10000 | 31.5 | 7700 | –
4 | COc1cc(N2CCN(S(C)(=O)=O)CC2)ccc1Nc1ncc2c(n1)N(C)c1sc(C)nc1C(=O)N2C [Compound 198, 6-((2-methoxy-4-(4-(methylsulfonyl)piperazin-1-yl)phenyl)amino)-2,4,9-trimethyl-4,9-dihydro-10H-pyrimido[5,4-b]thiazolo[5,4-e][1,4]diazepin-10-one] | > 10000 | 46.9 | > 10000 | –
5 | COc1cc(N2CCNCC2)ccc1Nc1ncc2c(n1)N(C)c1sc(C)nc1C(=O)N2C [Compound 12, 6-((2-methoxy-4-(piperazin-1-yl)phenyl)amino)-2,4,9-trimethyl-4,9-dihydro-10H-pyrimido[5,4-b]thiazolo[5,4-e][1,4]diazepin-10-one] | > 10000 | 43.5 | 2500 | –
6 | COc1cc(N2CCN(CCO)CC2)ccc1Nc1ncc2c(n1)N(C)c1sc(C)nc1C(=O)N2C [Compound 20, 6-((4-(4-(2-hydroxyethyl)piperazin-1-yl)-2-methoxyphenyl)amino)-2,4,9-trimethyl-4,9-dihydro-10H-pyrimido[5,4-b]thiazolo[5,4-e][1,4]diazepin-10-one] | > 10000 | 73.9 | > 10000 | –
7 | CNC(=O)c1ccc(Nc2ncc3c(n2)N(C)c2sc(C)nc2C(=O)N3C)c(OC)c1 [Compound 21, 3-methoxy-N-methyl-4-((2,4,9-trimethyl-10-oxo-9,10-dihydro-4H-pyrimido[5,4-b]thiazolo[5,4-e][1,4]diazepin-6-yl)amino)benzamide] | > 10000 | 45.4 | > 10000 | –
8 | CNC(=O)c1ccc(Nc2ncc3c(n2)N(C)c2sc(C)nc2C(=O)N3C)cc1 [Compound 197, N-methyl-4-((2,4,9-trimethyl-10-oxo-9,10-dihydro-4H-pyrimido[5,4-b]thiazolo[5,4-e][1,4]diazepin-6-yl)amino)benzamide] | > 10000 | 173 | 5900 | –
9 | CCN1C(=O)c2nc(C)sc2N(C)c2nc(Nc3ccc(N4CCC(N5CCN(C)CC5)CC4)cc3OC)ncc21 [Compound 132, 9-ethyl-6-((2-methoxy-4-(4-(4-methylpiperazin-1-yl)piperidin-1-yl)phenyl)amino)-2,4-dimethyl-4,9-dihydro-10H-pyrimido[5,4-b]thiazolo[5,4-e][1,4]diazepin-10-one] | > 10000 | 18.8 | 930 | –
10 | COc1cc2c(cc1Nc1ncc3c(n1)N(C)c1sc(C)nc1C(=O)N3C)CN(C)CC2 [Compound 22, 6-((6-methoxy-2-methyl-1,2,3,4-tetrahydroisoquinolin-7-yl)amino)-2,4,9-trimethyl-4,9-dihydro-10H-pyrimido[5,4-b]thiazolo[5,4-e][1,4]diazepin-10-one] | > 10000 | 37.8 | > 10000 | –
11 | CCOc1cc(N2CCN(C)CC2)ccc1Nc1ncc2c(n1)N(C)c1sc(C)nc1C(=O)N2C [Compound 16, 6-((2-ethoxy-4-(4-methylpiperazin-1-yl)phenyl)amino)-2,4,9-trimethyl-4,9-dihydro-10H-pyrimido[5,4-b]thiazolo[5,4-e][1,4]diazepin-10-one] | > 10000 | 54.5 | 6100 | –
12 | Cc1nc2c(s1)N(C)c1nc(Nc3ccc4c(c3)CCC(=O)N4)ncc1N(C)C2=O [Compound 23, 2,4,9-trimethyl-6-((2-oxo-1,2,3,4-tetrahydroquinolin-6-yl)amino)-4,9-dihydro-10H-pyrimido[5,4-b]thiazolo[5,4-e][1,4]diazepin-10-one] | > 10000 | 670 | > 10000 | –
13 | COc1cc(C(=O)N2CCC(N3CCN(C)CC3)CC2)ccc1Nc1ncc2c(n1)N(C)c1sc(C)nc1C(=O)N2C [Compound 28, 6-((2-methoxy-4-(4-(4-methylpiperazin-1-yl)piperidine-1-carbonyl)phenyl)amino)-2,4,9-trimethyl-4,9-dihydro-10H-pyrimido[5,4-b]thiazolo[5,4-e][1,4]diazepin-10-one] | > 10000 | 77.7 | > 10000 | –
14 | COc1cc(N2CCC(N3CCN(C)CC3)CC2)ccc1Nc1ncc2c(n1)N(C)c1sc(C(F)(F)F)nc1C(=O)N2C [Compound 177, 6-((2-methoxy-4-(4-(4-methylpiperazin-1-yl)piperidin-1-yl)phenyl)amino)-4,9-dimethyl-2-(trifluoromethyl)-4,9-dihydro-10H-pyrimido[5,4-b]thiazolo[5,4-e][1,4]diazepin-10-one] | – | 134 | – | ~10
15 | Cc1nc2c(s1)N(C)c1nc(Nc3ccc(N4CCC(O)CC4)cc3)ncc1NC2=O [Compound 2, 6-((4-(4-hydroxypiperidin-1-yl)phenyl)amino)-2,4-dimethyl-4,9-dihydro-10H-pyrimido[5,4-b]thiazolo[5,4-e][1,4]diazepin-10-one] | – | 580 | – | –
16 | COc1cc(N2CCN(C3CCN(C)CC3)CC2)ccc1Nc1ncc2c(n1)N(C)c1sc(C)nc1C(=O)N2C [Compound 195, 6-((2-methoxy-4-(4-(1-methylpiperidin-4-yl)piperazin-1-yl)phenyl)amino)-2,4,9-trimethyl-4,9-dihydro-10H-pyrimido[5,4-b]thiazolo[5,4-e][1,4]diazepin-10-one] | – | 62.9 | – | –
17 | CCN1c2nc(Nc3ccc(N4CCC(N5CCN(C)CC5)CC4)cc3OC)ncc2N(C)C(=O)c2nc(C)sc21 [Compound 159, 4-ethyl-6-((2-methoxy-4-(4-(4-methylpiperazin-1-yl)piperidin-1-yl)phenyl)amino)-2,9-dimethyl-4,9-dihydro-10H-pyrimido[5,4-b]thiazolo[5,4-e][1,4]diazepin-10-one] | > 10000 | 22.9 | > 10000 | –
